Legend:
Format in all cases: in vivo
[1] = tested on: Echinochloa crus-galli (ECHCG); experiment: Test Example 1 pre-emergence herbicidal activity; conditions: Echinochloa crus-galli, 480 h, rate 250 g/ha, evaluated 20 days later, read-out: Pre-emergence activity ECHCG (100=total damage to plant; 0=no damage to plant)
Method: (§1) Monocotyledonous and dicotyledonous test plants were sown in standard soil in pots. After cultivation for one day (pre-emergence) or after 10 days cultivation (post-emergence) under controlled conditions in a glasshouse, the plants were sprayed with an aqueous spray solution derived from the formulation of the technical active ingredient in 0.6 ml acetone and 45 ml formulation solution containing 10.6% Emulsogen EL (Registry number 61791-12-6), 42.2% N-methylpyrrolidone, 42.2% dipropylene glycol monomethyl ether (Registry number 34590-94-8) and 0.2% X-77 (Registry number 11097-66-8). The test plants were then grown in a greenhouse under optimum conditions until, 15 days later for post-emergence and 20 days for pre-emergence, the test was evaluated (100=total damage to plant; 0=no damage to plant).
(§2) Alopecurus myosuroides (ALOMY), Avena fatua (AVEFA), Lolium perenne (LOLPE), Setaria faberi (SETFA), Digitaria sanguinalis (DIGSA), Echinochloa crus-galli (ECHCG)

[2] = tested on: Digitaria sanguinalis (DIGSA); experiment: Test Example 1 pre-emergence herbicidal activity; conditions: Digitaria sanguinalis, 480 h, rate 250 g/ha, evaluated 20 days later, read-out: Pre-emergence activity DIGSA (100=total damage to plant; 0=no damage to plant)
Method: as §1, §2

Lolium perenne (LOLPE) [3] = experiment: Test Example 1 pre-emergence herbicidal activity; conditions: Lolium perenne, 480 h, rate 250 g/ha, evaluated 20 days later, read-out: Pre-emergence activity LOLPE (100=total damage to plant; 0=no damage to plant)
Method: as §1, §2

[4] = tested on: Alopecurus myosuroides (ALOMY); experiment: Test Example 1 pre-emergence herbicidal activity; conditions: Alopecurus myosuroides, 480 h, rate 250 g/ha, evaluated 20 days later, read-out: Pre-emergence activity ALOMY (100=total damage to plant; 0=no damage to plant)
Method: as §1, §2

Avena fatua (AVEFA) [5] = experiment: Test Example 1 pre-emergence herbicidal activity; conditions: Avena fatua, 480 h, rate 250 g/ha, evaluated 20 days later, read-out: Pre-emergence activity AVEFA (100=total damage to plant; 0=no damage to plant)
Method: as §1, §2

Setaria faberi (SETFA) [6] = experiment: Test Example 1 pre-emergence herbicidal activity; conditions: Setaria faberi, 480 h, rate 250 g/ha, evaluated 20 days later, read-out: Pre-emergence activity SETFA (100=total damage to plant; 0=no damage to plant)
Method: as §1, §2

[7] = tested on: Echinochloa crus-galli (ECHCG); experiment: Test Example 1 post-emergence herbicidal activity; conditions: 360 h, rate 125 g/ha, evaluated 15 days later, read-out: Post-emergence activity ECHCG (100=total damage to plant; 0=no damage to plant)
Method: as §1, §2

[8] = tested on: Digitaria sanguinalis (DIGSA); experiment: Test Example 1 post-emergence herbicidal activity; conditions: 360 h, rate 125 g/ha, evaluated 15 days later, read-out: Post-emergence activity DIGSA (100=total damage to plant; 0=no damage to plant)
Method: as §1, §2

Lolium perenne (LOLPE) [9] = experiment: Test Example 1 post-emergence herbicidal activity; conditions: 360 h, rate 125 g/ha, evaluated 15 days later, read-out: Post-emergence activity LOLPE (100=total damage to plant; 0=no damage to plant)
Method: as §1, §2

[10] = tested on: Alopecurus myosuroides (ALOMY); experiment: Test Example 1 post-emergence herbicidal activity; conditions: 360 h, rate 125 g/ha, evaluated 15 days later, read-out: Post-emergence activity ALOMY (100=total damage to plant; 0=no damage to plant)
Method: as §1, §2

Avena fatua (AVEFA) [11] = experiment: Test Example 1 post-emergence herbicidal activity; conditions: 360 h, rate 125 g/ha, evaluated 15 days later, read-out: Post-emergence activity AVEFA (100=total damage to plant; 0=no damage to plant)
Method: as §1, §2

Setaria faberi (SETFA) [12] = experiment: Test Example 1 post-emergence herbicidal activity; conditions: 360 h, rate 125 g/ha, evaluated 15 days later, read-out: Post-emergence activity SETFA (100=total damage to plant; 0=no damage to plant)
Method: as §1, §2

Compound	pest or weed control at 250 g/ha [1] [%]	pest or weed control at 250 g/ha [2] [%]	pest or weed control at 250 g/ha (Lolium perenne (LOLPE) [3]) [%]	pest or weed control at 250 g/ha [4] [%]	pest or weed control at 250 g/ha (Avena fatua (AVEFA) [5]) [%]	pest or weed control at 250 g/ha (Setaria faberi (SETFA) [6]) [%]	pest or weed control at 125 g/ha [7] [%]	pest or weed control at 125 g/ha [8] [%]	pest or weed control at 125 g/ha (Lolium perenne (LOLPE) [9]) [%]	pest or weed control at 125 g/ha [10] [%]	pest or weed control at 125 g/ha (Avena fatua (AVEFA) [11]) [%]	pest or weed control at 125 g/ha (Setaria faberi (SETFA) [12]) [%]
Cc1cc(C)c(C2=C(O)[C@@H]3[C@@H]4O[C@@H](C[C@H]4C)[C@@H]3C2=O)c(C)c1 [Example T65]	100	100	100	100	90	90	100	100	80	90	90	100
CCc1cc(C)cc(CC)c1C1=C(O)[C@H]2[C@@H](C1=O)[C@@H]1C=C[C@H]2O1 [Example T4]	100	100	100	90	90	90	100	80	90	80	90	80
CCc1cc(C)cc(CC)c1C1=C(O)[C@H]2[C@@H](C1=O)[C@]1(C)CC[C@@]2(C)O1 [Example T7]	90	80	100	100	80	90	90	70	90	100	90	90
CCc1cc(C)cc(CC)c1C1=C(O)[C@@H]2[C@@H]3O[C@@H](C[C@H]3c3ccc(C)c(F)c3)[C@@H]2C1=O [Example T146]	80	80	90	70	60	80	100	70	90	80	80	70
CCc1cc(C)cc(CC)c1C1=C(O)[C@@H]2[C@@H]3O[C@@H](C[C@H]3c3ccc(C#N)cc3)[C@@H]2C1=O [Example T160]	40	40	40	30	50	70	100	100	70	90	90	100
Cc1cc(C)c(C2=C(O)[C@@H]3[C@@H]4O[C@@H](C[C@H]4c4cnc5ccccc5n4)[C@@H]3C2=O)c(C)c1 [Example T188]	60	100	50	40	0	70	100	100	30	80	70	70
CCc1cc(C)cc(CC)c1C1=C(O)[C@@H]2[C@@H]3O[C@@H](C[C@H]3c3cc(OC)c(OC)c(OC)c3)[C@@H]2C1=O (racemic) [Example T181]	100	90	80	40	40	70	100	80	80	90	90	100
Cc1cc(C)c(C2=C(OC(=O)C3CC3)[C@H]3[C@@H](C2=O)[C@@H]2CC[C@H]3O2)c(C)c1 (racemic) [Example P5]	90	100	100	100	100	90	100	60	100	100	90	80
CCc1cc(C)cc(CC)c1C1=C(O)[C@@H]2[C@@H]3O[C@@H](C[C@H]3c3ccc(Cl)c(Cl)c3)[C@@H]2C1=O [Example T150]	40	0	30	0	0	0	100	30	40	60	60	90
CSC[C@]12C=C[C@H](O1)[C@@H]1C(=O)C(c3c(C)cc(C)cc3C)=C(O)[C@@H]12 (racemic) [Example T41]	70	30	20	50	30	60	80	80	0	40	0	80
Cc1cc(C)c(C2=C(O)[C@@H]3[C@@H]4O[C@@H](C[C@H]4c4ccc([N+](=O)[O-])cc4)[C@@H]3C2=O)c(C)c1 [Example T90]	70	60	20	10	60	40	80	80	60	90	80	60
Cc1cc(C)c(C2=C(O)[C@@H]3[C@@H]4O[C@@H](C[C@H]4c4ccc(F)cc4)[C@@H]3C2=O)c(C)c1 (racemic) [Example T70]	100	90	100	80	50	90	80	70	70	90	70	70
CCc1cc(C)cc(CC)c1C1=C(O)[C@H]2[C@@H](C1=O)[C@@H]1CC[C@@]2(CO)O1 [Example T14]	90	70	100	90	90	100	100	90	80	80	80	100

— patent US8754242B2, “Herbicides” (Syngenta Crop Protection LLC, priority 2007, dated 2014)
